Results on nine compounds are retold here after patent publication US11701316B2, “Synergistic anti-inflammatory compositions” (The Procter & Gamble Company, priority 2020, dated 2023).

For series [1] the following is noted: cited from earlier work.
Series [2] relates to PGE2 release from keratinocytes. The series is described as follows: Prostaglandin E2 (PGE2) assay in UVB-stressed TERT keratinocytes, normalized to ATP activity. As to conditions: tKC. The series is classed as cell-based, human. The source says:
Inhibiting the Cell's Inflammation Response to a Stressor—Prostaglandin E2 (“PGE2”) Assay.
PGE2 is a hormone-like substance that is known to participate in modulation of inflammation. Cellular inflammation is associated with a variety of hair, skin and scalp conditions, and thus inhibiting PGE2 activation vis-à-vis cellular inflammation may help treat these types of hair, skin and scalp conditions.
TERT keratinocytes (“tKC”-tKCs are human keratinocytes which have been transfected with the human telomerase reverse transcriptase gene to immortalize the cells) are obtained from Jerry Shay, University of Texas, Southwestern and plated at 40,000 cells/well into 24-well plates in 1 ml/well volume. EpiLife Medium (Life Technologies cat # MEPICFPRF500) supplemented with keratinocyte growth supplement (Life technologies cat #S-001-5) is used as the assay media. The cells are grown to confluence/near confluence, (typically 24 hours after plating 40,000 cells/well in 24 well plate) and then subjected to 15 mJ/cm^2 UVB-stress (typically […] in BioSun). The test compositions (strobilurins, salicylic acid, strobilurins+salicylic acid, and positive control 10 uM idebenone) are added to replace the medium (EpiLife Medium with 0.1% final concentration of DMSO-briefly, 1000× stocks of actives and combinations made in 100% DMSO and diluted into Epilife media 1 to 1000), and the plates are incubated for 18-24 hours. The supernatant is removed from each well, and the cells are rinsed with 2 ml/well medium (without supplements). A Cell Titer-Glo assay (Promega cat # G7571; Madison Wis.) is used to measure ATP activity, is conducted on the cells for normalization. The supernatant is tested in a PGE2 assay (Prostaglandin E2 Assay kit from Cisbio Bioassays cat# 62P2APEB) according to the manufacturer's instructions. The PGE2 results are normalized to ATP activity. The PGE2 quantitation (pg/mL) from the supernatant is divided by the normalization factor (treatment ATP/control ATP).
Example Calculation to Compute PGE2 Inhibition by Strobilurin
Luminescence of vehicle control in ATP assay=704567
Luminescence of strobilurin treatment in ATP assay=678903
Normalization factor for strobilurin treatment=1.038
PGE2 quantitation for vehicle control=2458 pg/mL PGE2
PGE2 quantitation for strobilurin treatment=2347 pg/mL PGE2
Student's T-Test (equal variance, 2 sided) are used to calculate p-values between observed combinations and expected combinations with p-value <0.05 considered statistically significant. Expected combination values are calculated by adding the PGE2 inhibition values of strobilurins alone and salicylic acid alone. Synergy factor is simply the ratio of observed combination/expected combination. Synergy factors greater than 1.0 with a p-value <0.05 are deemed synergistic.

[3] abbreviates: strobilurin alone, 1 × 10−5 w/v % (100:1), UVB.
Setting [4] is: strobilurin alone, 1 × 10−6 w/v % (10:1), UVB.
The mark [5] stands for this setting: strobilurin alone, 1 × 10−7 w/v % (1:1), UVB.
[6] abbreviates: strobilurin alone, 1 × 10−7 w/v % (column 1:10), 15 mJ/cm2 UVB, 18-24 hours.
Setting [7] is: strobilurin alone, 5 × 10−6 w/v % (50:1), UVB.

Structures are written as SMILES. Values joined by “and” are separate entries in the source; they are usually repeats but may differ in a detail not shown here. Equal entries are not always repeated.

Regarding `CO/C=C(/C(=O)OC)c1ccccc1Oc1cc(Oc2ccccc2C#N)ncn1` [azoxystrobin], the solubility in water entry in series [1] is recorded as “low”. For the same compound, the “% PGE2 Inhibition” value in series [2] (setting [3]) turned out to be 58%; in series [2] (setting [4]), 22%; in series [2] (setting [5]) it was 8%; in series [2] (setting [6]) it was 8%; in series [2] (setting [7]), 37%.

`CNC(=O)/C(=N/OC)c1ccccc1COc1cc(C)ccc1C` [dimoxystrobin]: the “% PGE2 Inhibition” value in series [2] (setting [3]) is 13%; in series [2] (setting [4]), 7%; in series [2] (setting [5]), 4%; in series [2] (setting [6]), 4%; in series [2] (setting [7]) it was 11%.

With `CO/N=C(/C1=NOCCO1)c1ccccc1Oc1ncnc(Oc2ccccc2Cl)c1F` [fluoxastrobin], the “% PGE2 Inhibition” value in series [2] (setting [3]) came out at 42%; in series [2] (setting [4]), 9%; in series [2] (setting [5]), 5%; in series [2] (setting [6]), 5%; in series [2] (setting [7]), 17%.

With `CO/N=C(/C(=O)OC)c1ccccc1COc1ccccc1C` [kresoxim methyl], the “% PGE2 Inhibition” value in series [2] (setting [3]) is given as 12%; in series [2] (setting [4]), 7%; in series [2] (setting [5]) it was 5%; in series [2] (setting [6]) it was 5%; in series [2] (setting [7]), 9%.

Regarding `CNC(=O)/C(=N/OC)c1ccccc1CO/N=C(C)/C(=N/OC)C(/C)=N/OC` [orysastrobin], the “% PGE2 Inhibition” value in series [2] (setting [3]) is on record as 36%; in series [2] (setting [4]), 12%; in series [2] (setting [5]), 6%; in series [2] (setting [6]) it was 6%; in series [2] (setting [7]), 18%.

Turning to `CO/C=C(/C(=O)OC)c1ccccc1COc1cccc(C(F)(F)F)n1` [picoxystrobin], the “% PGE2 Inhibition” value came to 24% in series [2] (setting [3]); 12% in series [2] (setting [4]); 6% in series [2] (setting [5]); 6% in series [2] (setting [6]); 18% in series [2] (setting [7]).

For the compound `COC(=O)N(OC)c1ccccc1COc1ccn(-c2ccc(Cl)cc2)n1` [pyraclostrobin], the “% PGE2 Inhibition” value in series [2] (setting [3]) is on record as 70.4%; in series [2] (setting [4]), 46.0%; in series [2] (setting [5]) it was 30.4%; in series [2] (setting [6]), 30.4%; in series [2] (setting [7]) it was 55.3%.

Regarding `O=C(O)c1ccccc1O` [salicylic acid, reference compound], the “% PGE2 Inhibition” value is 32% and 31.4% in series [2] (salicylic acid alone, 1 × 10−6 (column 1:10), UVB); 18% and 16.2% in series [2] (salicylic acid alone, 1 × 10−7 (1:1), UVB); 18% and 16.2% in series [2] (salicylic acid alone, 1 × 10−7 (10:1), UVB); 18% and 16.2% in series [2] (salicylic acid alone, 1 × 10−7 (50:1), UVB); 18% and 16.2% in series [2] (salicylic acid alone, 1 × 10−7 (100:1), UVB).

On to `CON=C(C(=O)OC)c1ccccc1CON=C(C)c1cccc(C(F)(F)F)c1` [trifloxystrobin], for which the “% PGE2 Inhibition” value in series [2] (setting [3]) was 8%; in series [2] (setting [4]) it was 7%; in series [2] (setting [5]) it was 5%; in series [2] (setting [6]) it was 5%; in series [2] (setting [7]) it was 8%.
